The values below come from patent publication EP0085870A1, “Dibenz(b,e)oxepin derivatives and pharmaceutical compositions containing them” (KYOWA HAKKO KOGYO CO., LTD, priority 1982, dated 1983).

Bounds are passed on as bounds.

For one series, the system named is male dd-strain mice. The experiment in a line: Acute toxicity test. In kind it is in vivo. Particulars: mortality for 7 days after administration. How it is done: Groups of male dd-strain mice (each croup consisting of five mice) weighing 20 + 1 g are used. Compound I are administered orally (po : 0.3 mg/g) or intraperitoneally (ip : 0.1 mg/g). The MLD lethal dose) is calculated from the mortality for 7 days after the administration to obtain the results given in Table 1.

The subject of a further series is PCA response. The experiment in a line: Antiasthmatic activity test: passive cutaneous anaphylaxis response (PCA response). In kind it is in vivo, Wistar strain male rats. Particulars: Rattus norvegicus, rats; for minimal effective dose: po, minimum effective dose, depressing ratio of 50% or more counts as positive, read-out: MED; for inhibition in vivo at 50 mg/kg: Dose 50 mg/Kg PO; for inhibition in vivo at 100 mg/kg: Dose 100 mg/Kg PO; for inhibition in vivo at 5 mg/kg: Dose 5 mg/Kg PO; for inhibition in vivo at 10 mg/kg: Dose 10 mg/Kg PO; for inhibition in vivo at 25 mg/kg: Dose 25 mg/Kg PO; for inhibition in vivo at 2.5 mg/kg: Dose 2.5 mg/Kg PO. How it is done: Antiasthmatic activity is evaluated according to passive cutaneous anaphylaxis response (PCA response). Antiserum is collected from Wistar strain male rats weighing 200 to 250 g. PCA response is evaluated using Wistar strain male rats weighing 100 to 120 g.
One mg of egg albumin is dissolved in 0.5 ml of pertussisdiphtheria mixed vaccine, and the resulting solution is mixed with 0.5 ml of incomplete adjuvant. The resulting emulsion is used as antigen and administered to rats subcutaneously through the sole. On the 12th day after the administration, heads of the rats are cut to collect blood. Thus, antiserum is prepared.
Upon evaluating antiasthmatic activity, concentration of the antiserum is adjusted so that diameter of blue-dyed portion is about 8 to about 10 mm.
Six rats are used per group. 0.05 ml of the antiserum is intracutaneously administered to each of the previously back-shaved rats to sensitize. After 17 hours, compound I or the solutions thereof (physiological salt solution or CMC solution) are respectively administered and, after 60 minutes, an antigen mixture (1% Evans' Blue physiological salt solution containing 0.2% egg albumin) is injected intravenously in an amount of 0.5 ml/100 g to induce PCA. response. After 30 minutes, rats are choked to death followed by cutting out skin to measure the diameter of blue-dyed portion. The results are evaluated by awarding a score according to the diameter of blue―dved portion. Furthermore, ratios of the diameters to that of solvent (psysiological salt solution or CMC) administered group are snowing a depressing ratio of 50% or more calculated according to the following formula are concluded to show positive antiasthmatic activity. Also, the minimum effective dose (MED) is determined from the results with respective doses to compare the strength of entrasthamatis activity.

[1] abbreviates: given 60 minutes before antigen, read-out: depressing ratio.

Regarding `CCN(CC)CCSC1c2ccccc2COc2c(C)cccc21` (stereo not drawn) [Compound 3, 4-methyl-11-[2-(diethylamino)ethyl]thio-6,11-dihydrodibenz[b,e]oxepin], the MLD was more than 100 mg/kg with male dd-strain mice (ip) and more than 300 mg/kg in the series on male dd-strain mice (po). For the same compound, in the series with PCA response, the minimal effective dose was determined as 100 mg/kg. Besides, the inhibition in vivo at 50 mg/kg in the series on PCA response (setting [1]) stood at 14%. Further, the inhibition in vivo at 100 mg/kg with PCA response (setting [1]) is 52%.

`CCc1ccc2c(c1)C(SCCN(CC)CC)c1ccccc1CO2` (stereo not drawn) [Compound 5, 2-ethyl-11-[2-(diethylamino)ethyl]thio-6,11-dihydrodibenz[b,e]oxepin] showed an MLD in the series on male dd-strain mice (ip) of 100 mg/kg. In the series on male dd-strain mice (po), the MLD is more than 300 mg/kg. Further, in the series on PCA response, the minimal effective dose was 10 mg/kg. Besides, in the series on PCA response (setting [1]), the inhibition in vivo at 5 mg/kg was found to be 36%, the inhibition in vivo at 10 mg/kg came to 56%, the inhibition in vivo at 25 mg/kg amounted to 100% and the inhibition in vivo at 50 mg/kg was determined as 100%. Also, the inhibition in vivo at 100 mg/kg with PCA response (setting [1]) was found to be 100%.

In the series with male dd-strain mice (ip), `CCN(CC)CCSC1c2ccccc2COc2ccc(C)cc21` (stereo not drawn) [Compound 2, 2-methyl-11-[2-(diethylamino)ethyl]thio-6,11-dihydrodibenz[b,e]oxepin] gave an MLD of more than 100 mg/kg. Moreover, the MLD in the series with male dd-strain mice (po) was more than 300 mg/kg. The minimal effective dose in the series on PCA response is 10 mg/kg. Besides, in the series with PCA response (setting [1]), the inhibition in vivo at 2.5 mg/kg worked out at 20%, the inhibition in vivo at 5 mg/kg came to 40%, the inhibition in vivo at 10 mg/kg was determined as 52% and the inhibition in vivo at 25 mg/kg is 100%. Further, in the series with PCA response (setting [1]), the inhibition in vivo at 50 mg/kg is 100% and the inhibition in vivo at 100 mg/kg amounted to 100%.

On to `Cc1ccc2c(c1)C(SCCN(C)C)c1ccccc1CO2` (stereo not drawn) [Compound 1, 2-methyl-11-[2-(dimethylamino)ethyl]thio-6,11-dihydrodibenz[b,e]oxepin], for which the MLD with male dd-strain mice (ip) is more than 100 mg/kg. In the series on male dd-strain mice (po), this compound displayed an MLD of more than 300 mg/kg. In addition, in the series with PCA response, the minimal effective dose came to 2.5 mg/kg. In addition, the inhibition in vivo at 1 mg/kg in the series with PCA response (Dose 1 mg/Kg PO, given 60 minutes before antigen, read-out: depressing ratio) amounted to 49%. Further, in the series on PCA response (setting [1]), the inhibition in vivo at 2.5 mg/kg turned out to be 81%, the inhibition in vivo at 5 mg/kg was 100%, the inhibition in vivo at 10 mg/kg was found to be 100% and the inhibition in vivo at 25 mg/kg amounted to 100%. Moreover, in the series on PCA response (setting [1]), the inhibition in vivo at 50 mg/kg stood at 100% and the inhibition in vivo at 100 mg/kg was determined as 100%.

In the series with male dd-strain mice (ip), `CC(C)N(CCSC1c2ccccc2COc2ccc(F)cc21)C(C)C` (stereo not drawn) [Compound 10, 2-fluoro-11-[2-(diisopropylamino)ethyl]thio-6,11-dihydrodibenz[b,e]oxepin] yielded an MLD of more than 100 mg/kg. In addition, the MLD in the series on male dd-strain mice (po) was more than 300 mg/kg. Further, the minimal effective dose with PCA response is 100 mg/kg. In the series with PCA response (setting [1]), the inhibition in vivo at 10 mg/kg was 0%, the inhibition in vivo at 25 mg/kg was 11%, the inhibition in vivo at 50 mg/kg worked out at 11% and the inhibition in vivo at 100 mg/kg was 73%.

`CN(C)CCSC1c2ccccc2COc2ccc(F)cc21` (stereo not drawn) [Compound 8, 2-fluoro-11-[2-(dimethylamino)ethyl]thio-6,11-dihydrodibenz[b,e]oxepin] came in with an MLD in the series with male dd-strain mice (ip) of more than 100 mg/kg. Besides, in the series on male dd-strain mice (po), the MLD was more than 300 mg/kg. Besides, the minimal effective dose with PCA response was 25 mg/kg. In the series with PCA response (setting [1]), the inhibition in vivo at 5 mg/kg is 23%, the inhibition in vivo at 10 mg/kg is 33%, the inhibition in vivo at 25 mg/kg turned out to be 100% and the inhibition in vivo at 50 mg/kg stood at 100%. Also, in the series with PCA response (setting [1]), the inhibition in vivo at 100 mg/kg turned out to be 100%.

On to `CCc1ccc2c(c1)C(SCCN(C(C)C)C(C)C)c1ccccc1CO2` (stereo not drawn) [Compound 9, 2-ethyl-11-[2-(diisopropylamino)ethyl]thio-6,11-dihydrodibenz[b,e]oxepin], for which the MLD in the series on male dd-strain mice (ip) was more than 100 mg/kg. Also, the MLD in the series on male dd-strain mice (po) is more than 300 mg/kg. In the series with PCA response, the minimal effective dose was 25 mg/kg. Also, in the series with PCA response (setting [1]), the inhibition in vivo at 10 mg/kg stood at 22%, the inhibition in vivo at 25 mg/kg came to 67%, the inhibition in vivo at 50 mg/kg stood at 100% and the inhibition in vivo at 100 mg/kg was 100%.

With `CCN(CC)CCSC1c2ccccc2COc2ccc(F)cc21` (stereo not drawn) [Compound 6, 2-fluoro-11-[2-(diethylamino)ethyl]thio-6,11-dihydrodibenz[b,e]oxepin], the MLD in the series on male dd-strain mice (ip) was more than 100 mg/kg. The MLD in the series on male dd-strain mice (po) is more than 300 mg/kg. For the same compound, the minimal effective dose in the series with PCA response came out at 25 mg/kg. In addition, in the series on PCA response (setting [1]), the inhibition in vivo at 10 mg/kg is 3%, the inhibition in vivo at 25 mg/kg was 84%, the inhibition in vivo at 50 mg/kg worked out at 100% and the inhibition in vivo at 100 mg/kg stood at 100%.

`Cc1ccc2c(c1)OCc1ccccc1C2SCCN(C)C` (stereo not drawn) [Compound 11, 3-methyl-11-[2-(dimethylamino)ethyl]thio-6,11-dihydrodibenz[b,e]oxepin] displayed an MLD in the series on male dd-strain mice (ip) of more than 100 mg/kg. The compound further yielded an MLD with male dd-strain mice (po) of more than 300 mg/kg. Moreover, in the series on PCA response, the minimal effective dose amounted to 50 mg/kg. Moreover, in the series with PCA response (setting [1]), the inhibition in vivo at 10 mg/kg was 0%, the inhibition in vivo at 25 mg/kg was 28%, the inhibition in vivo at 50 mg/kg was found to be 61% and the inhibition in vivo at 100 mg/kg stood at 61%.

`CCc1ccc2c(c1)C(SCCN(C)C)c1ccccc1CO2` (stereo not drawn) [Compound 7, 2-ethyl-11-[2-(dimethylamino)ethyl]thio-6,11-dihydrodibenz[b,e]oxepin] returned an MLD with male dd-strain mice (ip) of more than 100 mg/kg. The MLD with male dd-strain mice (po) is more than 300 mg/kg. The minimal effective dose in the series on PCA response came out at 5 mg/kg. Moreover, in the series on PCA response (setting [1]), the inhibition in vivo at 2.5 mg/kg amounted to 30%, the inhibition in vivo at 5 mg/kg stood at 81%, the inhibition in vivo at 10 mg/kg turned out to be 100% and the inhibition in vivo at 25 mg/kg amounted to 100%. Further, in the series on PCA response (setting [1]), the inhibition in vivo at 50 mg/kg came to 100% and the inhibition in vivo at 100 mg/kg came out at 100%.

On to `CCN(CC)CCSC1c2ccccc2COc2ccc(Cl)cc21` (stereo not drawn) [Compound 4, 2-chloro-11-[2-(diethylamino)ethyl]thio-6,11-dihydrodibenz[b,e]oxepin], for which the MLD with male dd-strain mice (ip) was more than 100 mg/kg. The compound further came in with an MLD with male dd-strain mice (po) of more than 300 mg/kg. In addition, in the series with PCA response, the minimal effective dose is 50 mg/kg. Further, in the series on PCA response (setting [1]), the inhibition in vivo at 10 mg/kg was 10%, the inhibition in vivo at 25 mg/kg turned out to be 46%, the inhibition in vivo at 50 mg/kg stood at 100% and the inhibition in vivo at 100 mg/kg is 100%.
